Data from patent US20250276998A1, “NOVEL DAROBACTIN DERIVATIVES” (Helmholtz-Zentrum Fur Infektionsforschung GmbH, priority 2021, published 2025).
Converted amounts (≈) assume the structure as drawn.

Assays:
[1] = system: Pseudomonas aeruginosa PA01; assay: MIC assay of crude extracts, relative activity vs darobactin A; type: cell-based; details: crude extract, relative to darobactin A, amount from LC-MS AUC
Description: (§1) Crude extracts of darobactin derivatives obtained by the heterologous expression and separation protocol described above were tested for their activity against exemplified Gram-negative bacteria with a minimum inhibitory concentration (MIC) assay. The presence of darobactin derivatives in the crude extracts was verified by checking the expected masses via LC-MS.
(§2) For the MIC assay, 10 μl of crude extract of each test sample, diluted in 50% methanol/H2O, was added each into a well of the first row of a 96 well plate. […] Then, 75 μl of cation-adjusted Mueller-Hinton broth medium was added to each well and the samples contained in the first row were mixed with the 75 μl medium/extract mixture. Starting from the […] mixtures in the first row, serial dilutions of the respective mixtures were prepared in corresponding subjacent rows of the 96 well plate. Bacterial suspensions of each strain to be tested were diluted 1:100 in cation-adjusted Mueller-Hinton broth to obtain a final inoculum of approximately 10^6 CFU/mL. 75 μl of each bacterial suspension to be tested was added to the respective crude extract samples in the wells of the 96 well plate and the plates were incubated at either 30° C. or 37° C. for at least 24 h under static conditions. Plates were then checked visually and MIC was determined as lowest concentration where no visible growth was observed. In order to quantify the activity of the obtained darobactin derivatives, their relative activity in relation to the activity of darobactin A was determined. The amount of darobactin derivative present in the extract test sample was calculated based on the area under the curve (AUC) of the mass peak as automatically calculated by software DataAnalysis 4.2 and extracted from the LC-MS measurements of each of the crude extract samples. Using the AUC of the mass peak of darobactin A (DA) as calibration standard, i.e. ratio between AUC of darobactin derivative and darobactin A was correlated to amount of compound present in sample. The results of activities of tested darobactin derivatives against exemplified Gram-negative bacteria as compared to the activity of darobactin A are summarized in Table 5 below.

[2] = system: Acinetobacter baumannii DSM-30008; assay: as above; type: cell-based; details: crude extract, relative to darobactin A, amount from LC-MS AUC
Description: as §1, §2

[3] = system: Klebsiella pneumoniae DSM-30104; assay: as above; type: cell-based; details: crude extract, relative to darobactin A, amount from LC-MS AUC
Description: as §1, §2

E. coli ATCC25922 [4] = assay: as above; type: cell-based, Escherichia coli; details: crude extract, relative to darobactin A, amount from LC-MS AUC
Description: as §1, §2

E. coli ATCC25922 [5] = assay: Microbroth dilution of crude extracts, concentration factor at full growth inhibition; type: cell-based, Escherichia coli
Description: (§3) Crude extracts containing the respective darobactin derivatives obtained by the heterologous expression and separation protocol described above were tested for their activity against exemplified Gram-negative bacteria in standard microbroth dilution assays. The presence of darobactin derivatives in the crude extracts was verified by checking the expected masses via LC-HRMS.
(§4) All microorganisms were handled according to standard procedures as recommended by the depositor. Strains were obtained from the German Collection of Cell Cultures and Microorganisms (Klebsiella pneumoniae DSM-30104, Acinetobacter baumannii DSM-30007 and A. baumannii DSM-30008), the American Type Culture Collection (Escherichia coli ATCC-25922), or were part of our internal strain collection (Pseudomonas aeruginosa PAO1, PA14 and PA14ΔmexAB).
(§5) For the MIC assay, 10 μl of crude extract of each test sample, diluted in 50% methanol/H2O, was added each into a well of the first row of a 96 well plate. […] Then, 75 μl of cation-adjusted Mueller-Hinton broth medium was added to each well and the samples contained in the first row were mixed with the 75 μl medium/extract mixture. Starting from the 150 μl mixtures in the first row, serial dilutions of the respective mixtures were prepared in corresponding subjacent rows of the 96 well plate. […]

P. aeruginosa PAO1 = assay: as above; type: cell-based, Pseudomonas aeruginosa
Description: as §3, §4, §5

A. baumannii DSM-30008 = assay: as above; type: cell-based, Acinetobacter baumannii; details: A. baumannii DMS-30008
Description: as §3, §4, §5

K. pneumoniae DSM-30104 = assay: as above; type: cell-based, Klebsiella pneumoniae
Description: as §3, §4, §5

[6] = system: A. baumannii 054 (OXA-51-ISAba1); assay: MIC against clinical isolates of A. baumannii; type: cell-based, Acinetobacter baumannii; details: clinical isolate A. baumannii 054 (OXA-51-ISAba1)
A. baumannii 070 (NDM-1) = assay: MIC against clinical isolates of A. baumannii; type: cell-based, Acinetobacter baumannii; details: clinical isolate A. baumannii 070 (NDM-1)
[7] = system: A. baumannii 046 (OXA-40); assay: MIC against clinical isolates of A. baumannii; type: cell-based, Acinetobacter baumannii; details: clinical isolate A. baumannii 046 (OXA-40)
[8] = system: A. baumannii 045 (OXA-58); assay: MIC against clinical isolates of A. baumannii; type: cell-based, Acinetobacter baumannii; details: clinical isolate A. baumannii 045 (OXA-58)
[9] = system: A. baumannii 047 (OXA-235); assay: MIC against clinical isolates of A. baumannii; type: cell-based, Acinetobacter baumannii; details: clinical isolate A. baumannii 047 (OXA-235)
[10] = system: A. baumannii 038 (OXA-23); assay: MIC against clinical isolates of A. baumannii; type: cell-based, Acinetobacter baumannii; details: clinical isolate A. baumannii 038 (OXA-23)

SMILES	Relative activity [1]	Relative activity [2]	Relative activity [3]	Relative activity (E. coli ATCC25922 [4])	further results
NCCC[C@H]1c2ccc3c(c[nH]c3c2)[C@H]2Oc3cccc4c(c[nH]c34)C[C@H](N)C(=O)N[C@@H](CC(N)=O)C(=O)N[C@@H]2C(=O)N[C@@H](CO)C(=O)N[C@@H]1C(=O)N[C@@H](CO)C(=O)N[C@@H](Cc1ccc(O)cc1)C(=O)O [Darobactin 10]	+	0	0	0	
NCCC[C@H]1c2ccc3c(c[nH]c3c2)[C@H]2Oc3cccc4c(c[nH]c34)C[C@H](N)C(=O)N[C@@H](CCC(N)=O)C(=O)N[C@@H]2C(=O)N[C@@H](CO)C(=O)N[C@@H]1C(=O)N[C@@H](CO)C(=O)N[C@@H](Cc1ccccc1)C(=O)O [Darobactin 11]	+++++	+++++	++++	+++++	
C[C@@H]1NC(=O)[C@H]2NC(=O)[C@H](CC(N)=O)NC(=O)[C@@H](N)Cc3c[nH]c4c(cccc34)O[C@@H]2c2c[nH]c3cc(ccc23)[C@H](CCCN)[C@@H](C(=O)N[C@@H](CO)C(=O)N[C@@H](Cc2ccccc2)C(=O)O)NC1=O [Darobactin 14]	++	++	+++	+++	
C[C@H](NC(=O)[C@H]1NC(=O)[C@H](CO)NC(=O)[C@H]2NC(=O)[C@H](CC(N)=O)NC(=O)[C@@H](N)Cc3c[nH]c4c(cccc34)O[C@@H]2c2c[nH]c3cc(ccc23)[C@@H]1CCCN)C(=O)N[C@@H](Cc1ccccc1)C(=O)O [Darobactin 16]	+	+	+	+	
C[C@@H]1NC(=O)[C@H]2NC(=O)[C@H](CC(N)=O)NC(=O)[C@@H](N)Cc3c[nH]c4c(cccc34)O[C@@H]2c2c[nH]c3cc(ccc23)[C@H](CCCN)[C@@H](C(=O)N[C@@H](CO)C(=O)N[C@@H](Cc2c[nH]c3ccccc23)C(=O)O)NC1=O [Darobactin 30]					Concentration factor of crude extract at which full growth inhibition is observed (E. coli ATCC25922 [5]): 0.83x; Concentration factor of crude extract at which full growth inhibition is observed (P. aeruginosa PAO1): 0.11x; Concentration factor of crude extract at which full growth inhibition is observed (A. baumannii DSM-30008): 0.83x; Concentration factor of crude extract at which full growth inhibition is observed (K. pneumoniae DSM-30104): 1.67x
C[C@@H](O)[C@@H]1NC(=O)[C@H]2NC(=O)[C@H](CC(N)=O)NC(=O)[C@@H](N)Cc3c[nH]c4c(cccc34)O[C@@H]2c2c[nH]c3cc(ccc23)C(CCNC(=N)N)[C@@H](C(=O)N[C@@H](CCCNC(=N)N)C(=O)N[C@@H](Cc2c[nH]c3ccccc23)C(=O)O)NC1=O (stereo partly shown) [Darobactin 39]					Concentration factor of crude extract at which full growth inhibition is observed (E. coli ATCC25922 [5]): 0.42x; Concentration factor of crude extract at which full growth inhibition is observed (P. aeruginosa PAO1): 0.11x; Concentration factor of crude extract at which full growth inhibition is observed (A. baumannii DSM-30008): 0.05x; Concentration factor of crude extract at which full growth inhibition is observed (K. pneumoniae DSM-30104): 0.42x
N=C(N)NCC[C@H]1c2ccc3c(c[nH]c3c2)[C@H]2Oc3cccc4c(c[nH]c34)C[C@H](N)C(=O)N[C@@H](CC(N)=O)C(=O)N[C@@H]2C(=O)N[C@@H](CO)C(=O)N[C@@H]1C(=O)N[C@@H](CO)C(=O)N[C@@H](Cc1ccccc1)C(=O)O [Darobactin D]	++++	++++	0	++++	
CCCCCCC1OC(=O)CNC(=O)C(C(C)O)NC(=O)C(CO)NC(=O)C(C(C)CC)NC(=O)C(CC(C)C)N(C)C(=O)C1C (stereo not shown) [Globomycin]					MIC [6]: >64 µg/mL; MIC (A. baumannii 070 (NDM-1)): 16 µg/mL (≈ 24.4 µM); MIC [7]: 32 µg/mL (≈ 48.8 µM); MIC [8]: 64 µg/mL (≈ 97.6 µM); MIC [9]: 64 µg/mL (≈ 97.6 µM); MIC [10]: 32 µg/mL (≈ 48.8 µM)
